The target of one assay is 5-HT6 receptor (Homo sapiens, UniProt P50406). Description: 5-HT6 receptor binding.
The nature of assay [1]: Food intake, body weight and plasma biomarkers in DIO (diet-induced obese) rats. Particulars: DIO rats, 3, 10 mg/kg bid, two weeks. The format is in vivo.
The target of another assay is H1 (Homo sapiens, UniProt P35367). Description: Compound Binding Profiles: H1. The following applies: * = Estimated IC50.
The target in the next assay is α1. The assay is described as follows: Compound Binding Profiles: α1.
The target in the next assay is T1, 5HT2C (Homo sapiens, UniProt P28335).
T1 sequence (P28335 33-458): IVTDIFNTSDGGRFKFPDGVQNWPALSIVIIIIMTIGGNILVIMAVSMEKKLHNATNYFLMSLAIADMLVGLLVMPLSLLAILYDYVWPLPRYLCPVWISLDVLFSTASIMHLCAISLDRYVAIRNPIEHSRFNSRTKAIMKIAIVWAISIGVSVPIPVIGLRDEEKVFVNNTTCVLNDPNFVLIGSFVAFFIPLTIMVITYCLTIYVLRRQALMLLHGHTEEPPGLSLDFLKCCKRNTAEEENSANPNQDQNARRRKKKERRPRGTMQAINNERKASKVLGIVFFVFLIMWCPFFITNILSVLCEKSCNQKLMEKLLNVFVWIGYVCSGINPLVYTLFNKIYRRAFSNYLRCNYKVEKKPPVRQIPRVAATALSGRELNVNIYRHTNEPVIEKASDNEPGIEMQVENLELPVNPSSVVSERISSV
Description: Compound Binding Profiles: 5HT2C.

Another assay deals with T2, D4 (Homo sapiens, UniProt P21917).
T2 sequence (P21917 1-419): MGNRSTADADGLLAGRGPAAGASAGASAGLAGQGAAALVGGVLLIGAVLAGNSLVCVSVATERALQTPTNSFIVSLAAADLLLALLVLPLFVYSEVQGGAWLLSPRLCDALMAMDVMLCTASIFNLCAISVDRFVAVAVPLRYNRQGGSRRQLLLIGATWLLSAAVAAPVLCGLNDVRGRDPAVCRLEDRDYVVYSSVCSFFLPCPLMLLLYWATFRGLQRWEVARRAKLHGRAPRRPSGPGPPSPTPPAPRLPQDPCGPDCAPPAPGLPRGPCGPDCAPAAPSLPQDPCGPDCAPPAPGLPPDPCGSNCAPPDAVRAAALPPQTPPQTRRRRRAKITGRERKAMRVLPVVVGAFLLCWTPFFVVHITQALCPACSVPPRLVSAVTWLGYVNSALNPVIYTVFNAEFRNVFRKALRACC
The assay is described as follows: Compound Binding Profiles: D4. Particulars: read-out: D4 binding class.

For another assay, the target named is T3, 5HT1A (Homo sapiens, UniProt P08908).
T3 sequence (P08908 1-422): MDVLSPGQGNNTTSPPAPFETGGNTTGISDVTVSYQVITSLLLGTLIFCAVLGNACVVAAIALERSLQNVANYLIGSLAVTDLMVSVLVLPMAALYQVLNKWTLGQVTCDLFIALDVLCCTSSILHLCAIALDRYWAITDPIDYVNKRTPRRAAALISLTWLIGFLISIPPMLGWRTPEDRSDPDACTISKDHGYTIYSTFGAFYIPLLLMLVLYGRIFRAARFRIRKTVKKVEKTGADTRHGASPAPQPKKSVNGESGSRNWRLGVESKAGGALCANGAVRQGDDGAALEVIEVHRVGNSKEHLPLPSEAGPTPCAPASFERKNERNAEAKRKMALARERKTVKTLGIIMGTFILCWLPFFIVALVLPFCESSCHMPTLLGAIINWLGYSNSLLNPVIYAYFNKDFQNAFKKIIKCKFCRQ
Description: Compound Binding Profiles: 5HT1A. The following applies: read-out: 5HT1A binding class.

Another assay deals with D3 (Homo sapiens, UniProt P35462). Description: Compound Binding Profiles: D3.
Chain of D3 (P35462 whole entry): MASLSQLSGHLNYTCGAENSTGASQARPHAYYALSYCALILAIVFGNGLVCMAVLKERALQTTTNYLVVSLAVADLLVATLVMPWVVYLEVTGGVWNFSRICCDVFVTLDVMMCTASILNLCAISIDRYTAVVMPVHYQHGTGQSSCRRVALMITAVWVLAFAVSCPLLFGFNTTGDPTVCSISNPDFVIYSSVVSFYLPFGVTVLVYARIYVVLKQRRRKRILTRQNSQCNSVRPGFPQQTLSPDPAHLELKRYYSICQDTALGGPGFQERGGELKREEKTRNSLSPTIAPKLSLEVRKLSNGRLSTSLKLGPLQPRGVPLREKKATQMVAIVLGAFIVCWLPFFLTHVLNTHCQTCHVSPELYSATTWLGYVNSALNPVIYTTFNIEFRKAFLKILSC
For the next assay, the target named is D2 (Homo sapiens, UniProt P14416). The assay is described as follows: Compound Binding Profiles: D2. The following applies: * = Estimated IC50.
Chain of D2 (P14416 whole entry): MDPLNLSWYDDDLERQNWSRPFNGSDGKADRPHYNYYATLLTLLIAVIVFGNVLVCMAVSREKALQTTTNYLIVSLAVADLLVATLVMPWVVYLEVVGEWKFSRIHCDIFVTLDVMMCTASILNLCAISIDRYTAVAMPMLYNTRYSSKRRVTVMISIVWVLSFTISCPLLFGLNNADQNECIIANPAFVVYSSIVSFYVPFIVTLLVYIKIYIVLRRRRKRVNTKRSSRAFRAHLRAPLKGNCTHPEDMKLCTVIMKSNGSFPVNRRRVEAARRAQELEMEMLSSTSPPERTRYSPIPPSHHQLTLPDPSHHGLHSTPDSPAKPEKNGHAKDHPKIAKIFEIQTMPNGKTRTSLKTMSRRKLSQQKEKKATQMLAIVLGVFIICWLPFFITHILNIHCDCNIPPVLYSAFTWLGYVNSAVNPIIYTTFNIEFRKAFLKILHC
The target in another assay is T4, M1 (Homo sapiens, UniProt P11229).
T4 sequence (P11229 1-460): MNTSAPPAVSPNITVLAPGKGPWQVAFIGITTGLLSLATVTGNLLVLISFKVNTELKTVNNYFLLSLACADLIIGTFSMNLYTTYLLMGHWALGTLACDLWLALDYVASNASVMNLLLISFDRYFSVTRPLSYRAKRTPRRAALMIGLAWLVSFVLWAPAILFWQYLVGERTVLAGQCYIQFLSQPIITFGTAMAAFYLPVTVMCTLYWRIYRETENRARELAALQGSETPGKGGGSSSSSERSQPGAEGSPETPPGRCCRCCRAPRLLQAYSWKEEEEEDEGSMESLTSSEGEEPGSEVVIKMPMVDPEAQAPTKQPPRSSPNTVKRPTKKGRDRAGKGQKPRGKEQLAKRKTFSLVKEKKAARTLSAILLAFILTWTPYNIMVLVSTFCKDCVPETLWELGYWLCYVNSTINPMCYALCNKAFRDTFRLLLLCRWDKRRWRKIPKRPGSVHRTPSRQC
Description: Compound Binding Profiles: M1.

For a further assay, the target named is α2. Description: Compound Binding Profiles: α2.
For another assay, the target named is 5HT2A (Homo sapiens, UniProt P28223). Description: Compound Binding Profiles: 5HT2A.
Chain of 5HT2A (P28223 whole entry, species assumed): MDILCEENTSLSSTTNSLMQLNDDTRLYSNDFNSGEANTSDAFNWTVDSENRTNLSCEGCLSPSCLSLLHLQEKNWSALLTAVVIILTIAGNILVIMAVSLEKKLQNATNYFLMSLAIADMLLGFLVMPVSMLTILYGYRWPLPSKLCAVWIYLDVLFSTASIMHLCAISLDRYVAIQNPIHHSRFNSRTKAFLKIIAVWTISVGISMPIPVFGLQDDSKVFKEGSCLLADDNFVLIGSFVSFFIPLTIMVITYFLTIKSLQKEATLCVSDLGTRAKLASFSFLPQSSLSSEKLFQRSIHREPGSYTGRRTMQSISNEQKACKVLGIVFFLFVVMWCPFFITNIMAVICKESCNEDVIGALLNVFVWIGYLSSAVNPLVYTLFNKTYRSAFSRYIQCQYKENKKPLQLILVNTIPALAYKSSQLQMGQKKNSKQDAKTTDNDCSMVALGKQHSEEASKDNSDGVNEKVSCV
The target of another assay is D1 (Homo sapiens, UniProt P21728). Description: Compound Binding Profiles: D1. The following applies: read-out: D1 binding class.
Chain of D1 (P21728 whole entry): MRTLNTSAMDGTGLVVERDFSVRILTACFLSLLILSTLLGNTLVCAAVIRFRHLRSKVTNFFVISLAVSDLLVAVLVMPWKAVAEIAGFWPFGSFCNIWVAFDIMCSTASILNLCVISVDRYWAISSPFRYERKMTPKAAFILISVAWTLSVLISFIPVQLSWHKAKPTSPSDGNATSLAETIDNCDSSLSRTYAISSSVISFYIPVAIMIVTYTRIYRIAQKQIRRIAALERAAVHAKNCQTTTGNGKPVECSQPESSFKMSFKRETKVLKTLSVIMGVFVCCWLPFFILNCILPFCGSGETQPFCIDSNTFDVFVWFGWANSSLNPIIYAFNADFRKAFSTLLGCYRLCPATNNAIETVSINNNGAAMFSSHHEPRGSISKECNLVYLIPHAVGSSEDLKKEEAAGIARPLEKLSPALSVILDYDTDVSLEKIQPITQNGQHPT
Assay [2] is described as follows: Novel object recognition test. Particulars: for effect on recognition index / object recognition compared to vehicle: 0.1 mg/kg i.p. Format: in vivo, C57Bl/6J mice. An excerpt: Male C57Bl/6J mice from Jackson Laboratories (Bar Harbor, Me.) were used. Mice were received at 6-weeks of age. Upon receipt, mice were assigned unique identification numbers (tail marked) and were group housed in polycarbonate cages with filter tops. All animals remained housed in groups of four during the remainder of the study. All mice were acclimated to the colony room for at least two weeks prior to testing and were subsequently tested at an average age of 8 weeks of age. During the period of acclimation, mice were examined on a regular basis, handled, and weighed to assure adequate health and suitability. Mice were maintained on a 12/12 light/dark cycle with the light on at 6:00 a.m. The room temperature was maintained between 20 and 23° C. with a relative humidity maintained between 30% and 70%. Chow and water were provided ad libitum for the duration of the study. In each test, animals were randomly assigned across treatment groups.
The pH at the 10 mg/kg was around 5.5.
Rolipram, also dissolved in 10% DMSO was only administered 20 min prior to training on Day 2.
On Day 1, mice were habituated to a circular open field environment (d=18 in, h=15 cm) for one hour in cage groups of four. Each Arena was constructed out of acrylic that was painted black to block reflection. On day 2, mice were placed back into the same arena for a training trial and allowed to explore a set of two identical objects placed equidistance apart from both each other and the arena walls. Individual mice were trained for a total of 15 minutes and then placed back into their home cages. On Day 3, mice were placed back into the same arena in the presence of both the familiar (previously explored) and a novel object. The spatial positions of the familiar and novel object (i.e. left-right sides) were counterbalanced between subjects. The difference in time spent exploring each object during the test trial was used as an index of object recognition and memory retention. Each animals test trial was recorded and these tapes were observed and scored after test completion. The first 10 min of each session was scored and object recognition was computed using the formula: (Time spent with novel object*100)/(Total Time exploring both objects). Tissue Harvest
Data were analyzed by analysis of variance (ANOVA) followed by post-hoc comparisons with Fisher Tests when appropriate. An effect was considered significant if p<0.05. Data are represented as the mean and standard error to the mean.

Where [3] appears, read: * = Estimated IC50, hydrochloride.

Structures can show the parent of a compound that is named as a salt. Where two headings read alike, the source gives them in different places.

Chain of 5-HT6 receptor (P50406 whole entry): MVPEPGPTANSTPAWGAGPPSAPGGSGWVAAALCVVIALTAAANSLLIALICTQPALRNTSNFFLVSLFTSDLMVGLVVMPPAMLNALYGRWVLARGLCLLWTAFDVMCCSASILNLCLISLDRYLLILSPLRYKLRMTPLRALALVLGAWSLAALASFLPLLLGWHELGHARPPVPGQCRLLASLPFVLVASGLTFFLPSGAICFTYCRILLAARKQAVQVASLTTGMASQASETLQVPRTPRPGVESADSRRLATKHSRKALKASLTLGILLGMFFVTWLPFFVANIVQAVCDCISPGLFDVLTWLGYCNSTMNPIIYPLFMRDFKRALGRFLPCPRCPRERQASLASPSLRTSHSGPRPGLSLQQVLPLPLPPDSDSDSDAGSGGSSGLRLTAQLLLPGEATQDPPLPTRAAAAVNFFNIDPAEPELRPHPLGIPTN
Chain of H1 (P35367 whole entry): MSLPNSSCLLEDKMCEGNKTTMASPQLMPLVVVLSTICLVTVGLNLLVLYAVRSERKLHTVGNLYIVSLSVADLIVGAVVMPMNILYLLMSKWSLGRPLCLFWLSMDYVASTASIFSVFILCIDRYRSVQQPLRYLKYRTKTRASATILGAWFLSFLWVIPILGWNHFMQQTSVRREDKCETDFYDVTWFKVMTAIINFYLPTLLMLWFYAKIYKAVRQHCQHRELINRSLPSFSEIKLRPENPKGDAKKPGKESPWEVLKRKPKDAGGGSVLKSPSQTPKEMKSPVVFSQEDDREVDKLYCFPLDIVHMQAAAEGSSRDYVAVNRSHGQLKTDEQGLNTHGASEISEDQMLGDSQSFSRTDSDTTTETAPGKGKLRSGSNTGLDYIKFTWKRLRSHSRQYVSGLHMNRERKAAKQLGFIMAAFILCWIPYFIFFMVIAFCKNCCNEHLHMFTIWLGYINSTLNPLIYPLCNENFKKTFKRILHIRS

For `COc1cc(Cl)cc(C(C)Nc2cc(N3CCNCC3)ccc2S(C)(=O)=O)c1OC` (single isomer, unassigned; (+)) [(+) isomer, [1-(5-Chloro-2,3-dimethoxy-phenyl)-ethyl]-(2-methanesulfonyl-5-piperazin-1-yl-phenyl)-amine hydrochloride], the Ki on 5-HT6 receptor (read-out: 5-HT6 Ki) is 18 nM.
`COc1cc(Cl)cc(C(C)Nc2cc(N3CCNCC3)ccc2S(C)(=O)=O)c1OC` (single isomer, unassigned; (-)) [(−) isomer, [1-(5-Chloro-2,3-dimethoxy-phenyl)-ethyl]-(2-methanesulfonyl-5-piperazin-1-yl-phenyl)-amine hydrochloride] gave a Ki at 5-HT6 receptor (5-HT6 Ki) of 4.5 nM.
Consider `CC(Nc1cc(N2CCNCC2)ccc1S(C)(=O)=O)c1ccccc1` (stereo not shown) [Compound B, 2-(Methylsulfonyl)-N-(1-phenylethyl)-5-(piperazin-1-yl)benzenamine hydrochloride], for which, at 5-HT6 receptor (read-out: 5-HT6 Ki), the Ki amounted to 47 nM.
Same read-out and setting: as for `COc1cc(OC)cc(C(C)Nc2cc(N3CCNCC3)ccc2C(=O)C(F)(F)F)c1` (stereo not shown) [Compound C, 1-(2-(1-(3,5-Dimethoxyphenyl)ethylamino)-4-(piperazin-1-yl)phenyl)-2,2,2-trifluoroethanone hydrochloride], the figure is 34 nM; as for `COc1cc(OC)cc(C(C)Nc2cc(N3CCNCC3)ccc2S(C)(=O)=O)c1.Cl` (stereo not shown) [Compound D, N-(1-(3,5-Dimethoxyphenyl)ethyl-2-(methylsulfonyl)-5-(piperazin-1-yl)-benzeneamine hydrochloride], 27 nM.
In the case of `COc1cc(OC)cc(C(C)Nc2cc(N3CCNCC3)ccc2S(C)(=O)=O)c1.Cl` (stereo not shown) [Compound D], in assay [1], the body weight entry was “significant decrease”, the food intake entry was “significant decrease”, the “plasma level of Insulin” value was “reduction” and the “plasma level of Leptin” value was “reduction”. Moreover, in assay [1], the “plasma level of NEFA” value is “reduction” and the “plasma level of triglycerides” value is recorded as “reduction”.
A word on the IC50: it is the midpoint of a concentration-inhibition curve. `CC(Nc1cc(N2CCNCC2)ccc1S(C)(=O)=O)c1cc(Cl)cc2c1OCCO2` (stereo not shown) [Cpd. E, N-(1-(6-Chloro-2,3-dihydrobenzo[b][1,4]dioxin-8-yl)ethyl)-2-(methylsulfonyl)-5-(piperazin-1-yl)benzenamine hydrochloride]: the IC50 was 20 µM at H1; 24 µM at α1 (setting [3]); 613 nM on D2; 10 µM on M1 (* = Estimated IC50); 30 µM on α2 (setting [3]). Also, the Ki on 5HT2C was 12 nM; at D4, 100 to 1000 nM; at 5HT1A it was 100 to 1000 nM; at 5-HT6 receptor (binding profile table, read-out: 5HT6 Ki), 1.3 nM; at D3, 2.8 nM; at 5HT2A, 150 nM. Moreover, the Ki on D1 was in the range of 100 to 1000 nM.
In the case of `COc1ccc(C2CNC(=O)C2)cc1OC1CCCC1` (stereo not shown) [Rolipram, reference compound], the “Exploration time, Diff of Means Novel vs. Familiar” value in assay [2] (0.1 mg/kg) is 29.803. Further, the “time exploring novel object versus familiar object” value in [2] (0.1 mg/kg) was “spent more time exploring novel object than the familiar object”. Moreover, the “effect on recognition index / object recognition compared to vehicle” value in assay [2] is recorded as “significant, positive effect on object recognition”; in assay [2] (listed as rolipram) it was “significantly increased the recognition index”. Also, the “Memory index, Mean” value in assay [2] (0.1 mg/kg, 10 min test) amounted to 71.670. Also, the “Exploration time, Mean” value in [2] (0.1 mg/kg, Familiar Object) is reported as 19.172; in [2] (0.1 mg/kg, Novel Object) it was 48.975. Further, the “Exploration time, Diff of Means 10% DMSO vs. treatment” value in assay [2] (within Familiar, 0.1 mg/kg) turned out to be 4.807. The “Exploration time, Diff of Means treatment vs. 10% DMSO” value in [2] (within Novel, 0.1 mg/kg) came out at 17.991.
For `O=C1Cc2cc(CCN3CCN(c4nsc5ccccc45)CC3)c(Cl)cc2N1` [Ziprasidome, reference compound], the Ki was 100 to 1000 nM at α1 (read-out: α1 binding class); less than 10 nM at 5HT1A; 11 to 100 nM at 5-HT6 receptor (read-out: 5HT6 binding class); less than 10 nM at M1 (read-out: M1 binding class); 100 to 1000 nM at α2 (read-out: α2 binding class).

Values taken from patent US8604021B2, “Substituted arylamine compounds and methods of treatment” (priority 2005, dated 2013).
